Measurements taken from ChEMBL document CHEMBL5352439, “Design, synthesis, biological evaluation and molecular docking study of novel urea-based benzamide derivatives as potent poly(ADP-ribose) polymerase-1 (PARP-1) inhibitors” (Eur J Med Chem, 2022).

Experiments:
[1] = system: L02; experiment: Antiproliferative activity against human L02 cells assessed as inhibition of cell growth […] incubated for 48 hrs by MTT assay; format: functional, cell-based; conditions: L02, 48 h
[2] = system: A-375; experiment: Antiproliferative activity against human A-375 cells assessed as inhibition of cell growth incubated for 48 hrs by MTT assay; format: functional, cell-based; conditions: A-375, 48 h
[3] = system: A549; experiment: Antiproliferative activity against human A549 cells assessed as inhibition of cell growth incubated for 48 hrs by MTT assay; format: functional, cell-based; conditions: A549, 48 h
[4] = system: HCT-116; experiment: Inhibition of cell migration in human HCT-116 cells at 25 uM incubated for 48 hrs by wound healing assay (reference value: 42.8 %); format: functional
[5] = system: HeLa; experiment: Antiproliferative activity against human HeLa cells assessed as inhibition of cell growth incubated for 48 hrs by MTT assay; format: functional, cell-based
[6] = system: HCT-116; experiment: Inhibition of cell migration in human HCT-116 cells at 25 uM incubated for 24 hrs by wound healing assay (reference value: 32.0 %); format: functional
[7] = system: MDA-MB-231; experiment: Antiproliferative activity against human MDA-MB-231 cells assessed as inhibition of cell growth incubated for 48 hrs by MTT assay; format: functional, cell-based; conditions: MDA-MB-231, 48 h
[8] = system: HCT-116; experiment: Antiproliferative activity against human HCT-116 cells assessed as inhibition of cell growth incubated for 48 hrs by MTT assay; format: functional, cell-based; conditions: HCT-116, 48 h
[9] = system: MDA-MB-231; experiment: Antiproliferative activity against human MDA-MB-231 cells assessed as inhibition of cell growth at 20 uM incubated for 48 hrs by MTT assay; format: functional
[10] = system: A549; experiment: Antiproliferative activity against human A549 cells assessed as inhibition of cell growth at 20 uM incubated for 48 hrs by MTT assay; format: functional
[11] = system: HCT-116; experiment: Antiproliferative activity against human HCT-116 cells assessed as inhibition of cell growth at 20 uM incubated for 48 hrs by MTT assay; format: functional
[12] = system: HeLa; experiment: Antiproliferative activity against human HeLa cells assessed as inhibition of cell growth at 20 uM incubated for 48 hrs by MTT assay; format: functional
[13] = system: A-375; experiment: Antiproliferative activity against human A-375 cells assessed as inhibition of cell growth at 20 uM incubated for 48 hrs by MTT assay; format: functional

Row | IC50 [2] [µM] | IC50 [3] [µM] | IC50 [5] [µM] | IC50 [7] [µM] | IC50 [8] [µM] | SMILES | IC50 [1] [µM] | inhibition at 25 µM [4] [%] | inhibition at 25 µM [6] [%] | inhibition at 20 µM [9] [%] | inhibition at 20 µM [10] [%] | inhibition at 20 µM [11] [%] | inhibition at 20 µM [12] [%] | inhibition at 20 µM [13] [%]
1 | 12.7 | 31.6 | 27.7 | 24.8 | 27.3 | O=C(c1cc(Cc2n[nH]c(=O)c3ccccc23)ccc1F)N1CCN(C(=O)C2CC2)CC1 [OLAPARIB] | 60.7 | 33.1 | 25.8 |  |  |  |  | 
2 |  |  |  |  |  | NC(=O)c1ccccc1NCc1ccc(NC(=O)Nc2ccccc2)cc1 |  |  |  | 45.2 | 29 | 41.2 | 32.3 | 35
3 |  |  |  |  |  | NC(=O)c1ccccc1OCc1ccccc1NC(=O)Nc1cccc(F)c1 |  |  |  | 40.4 | < 1 | 18.9 | < 1 | 22.5
4 | 25.4 | 19.9 | 12.1 | 20.5 | 13.1 | NC(=O)c1ccccc1NCc1ccc(NC(=O)Nc2cccc(Cl)c2)cc1 |  |  |  | 47.3 | 52.6 | 63.6 | 76.5 | 58.3
5 |  |  |  |  |  | NC(=O)c1ccccc1OCc1ccccc1NC(=O)Nc1cccc(Br)c1 |  |  |  | 27.3 | 10.1 | 40.4 | 42.5 | 31.7
6 |  |  |  |  |  | Cc1cccc(NC(=O)Nc2ccc(COc3ccccc3C(N)=O)cc2)c1 |  |  |  | 42.2 | 10 | 24 | 37.5 | 23.7
7 |  |  |  |  |  | Cc1cccc(NC(=O)Nc2cccc(COc3ccccc3C(N)=O)c2)c1 |  |  |  | 3.6 | 57.7 | 66.5 | 48.6 | 43.7
8 |  |  |  |  |  | NC(=O)c1ccccc1NCc1ccccc1NC(=O)Nc1cccc(Cl)c1 |  |  |  | 36.2 | 52.6 | 44.3 | 7.53 | 30
9 |  |  |  |  |  | NC(=O)c1ccccc1OCc1cccc(NC(=O)Nc2cccc(F)c2)c1 |  |  |  | 57.7 | 17 | 32.6 | 40.1 | 17.5
10 |  |  |  |  |  | Cc1cccc(NC(=O)Nc2ccccc2CNc2ccccc2C(N)=O)c1 |  |  |  | 17.9 | 1.8 | 71.9 | < 1 | 34
11 | 28.5 | 12.4 | 12.7 | 21.2 | 12.3 | NC(=O)c1ccccc1OCc1cccc(NC(=O)Nc2cccc(Cl)c2)c1 |  |  |  | 65.2 | 85 | 83.3 | 77.6 | 63.1
12 |  |  |  |  |  | NC(=O)c1ccccc1NCc1ccc(NC(=O)Nc2cccc(F)c2)cc1 |  |  |  | 34.6 | 8.3 | 27 | 27.4 | 36.8
13 | 29.8 | 41.5 | 21.9 | 21.6 | 14.2 | COc1cccc(NC(=O)Nc2ccc(CNc3ccccc3C(N)=O)cc2)c1 |  |  |  | 50 | 59.3 | 82.3 | 66.8 | 50.8
14 |  |  |  |  |  | COc1cccc(NC(=O)Nc2ccccc2COc2ccccc2C(N)=O)c1 |  |  |  | 37.3 | < 1 | 70.2 | 26.5 | 33.1
15 | 19.7 | 11.8 | 14 | 14.4 | 10.4 | NC(=O)c1ccccc1NCc1ccc(NC(=O)Nc2cccc(Br)c2)cc1 |  |  |  | 67.2 | 82.2 | 72.5 | 71.5 | 67.2
16 |  |  |  |  |  | COc1cccc(NC(=O)Nc2cccc(CNc3ccccc3C(N)=O)c2)c1 |  |  |  | 59.1 | < 1 | 30.2 | 27 | 25
17 |  |  |  |  |  | NC(=O)c1ccccc1NCc1ccccc1NC(=O)Nc1ccccc1 |  |  |  | 40.9 | 17.7 | 83.3 | < 1 | < 1
18 |  |  |  |  |  | NC(=O)c1ccccc1OCc1cccc(NC(=O)Nc2ccccc2)c1 |  |  |  | 15 | 54.7 | 71.1 | 41 | 40.6

Row | IC50 [2] [µM] | IC50 [3] [µM] | IC50 [5] [µM] | IC50 [7] [µM] | IC50 [8] [µM] | SMILES | IC50 [1] [µM] | inhibition at 25 µM [4] [%] | inhibition at 25 µM [6] [%] | inhibition at 20 µM [9] [%] | inhibition at 20 µM [10] [%] | inhibition at 20 µM [11] [%] | inhibition at 20 µM [12] [%] | inhibition at 20 µM [13] [%]
19 |  |  |  |  |  | NC(=O)c1ccccc1NCc1ccccc1NC(=O)Nc1cccc(F)c1 |  |  |  | 52.1 | < 1 | 40.5 | 44.6 | 28.3
20 |  |  |  |  |  | COc1cccc(NC(=O)Nc2cccc(COc3ccccc3C(N)=O)c2)c1 |  |  |  | 38.8 | 15.8 | 36.8 | 33.1 | 29.9
21 |  |  |  |  |  | NC(=O)c1ccccc1OCc1ccccc1NC(=O)Nc1ccccc1 |  |  |  | 30.3 | 33 | 13.3 | 36 | 21.7
22 |  |  |  |  |  | NC(=O)c1ccccc1OCc1ccccc1NC(=O)Nc1cccc(Cl)c1 |  |  |  | 30.2 | 35.4 | 72.4 | 32.7 | 34.1
23 |  |  |  |  |  | Cc1cccc(NC(=O)Nc2ccc(CNc3ccccc3C(N)=O)cc2)c1 |  |  |  | 50.5 | 2.12 | 33.7 | 39.6 | 14.3
24 |  |  |  |  |  | COc1cccc(NC(=O)Nc2ccccc2CNc2ccccc2C(N)=O)c1 |  |  |  | 37.7 | 13.1 | 45.3 | < 1 | 35.4
25 | 26.7 | 25.8 | 15.2 | 24.9 | 16.1 | NC(=O)c1ccccc1OCc1ccc(NC(=O)Nc2cccc(Cl)c2)cc1 |  |  |  | 40.1 | 46.6 | 74 | 66.1 | 54.2
26 |  |  |  |  |  | Cc1cccc(NC(=O)Nc2ccccc2COc2ccccc2C(N)=O)c1 |  |  |  | 37.8 | 20.6 | 80 | < 1 | < 1
27 |  |  |  |  |  | NC(=O)c1ccccc1OCc1ccc(NC(=O)Nc2ccccc2)cc1 |  |  |  | 45.5 | 24.3 | 34.2 | 20.1 | 37.3
28 | 37 | 26.8 | 29.3 | 24.7 | 25.3 | Cc1cccc(NC(=O)Nc2cccc(CNc3ccccc3C(N)=O)c2)c1 |  |  |  | 57.9 | 58.3 | 76.2 | 58 | 42.4
29 | 13.4 | 26.8 | 17.6 | 27.4 | 17.6 | NC(=O)c1ccccc1OCc1ccc(NC(=O)Nc2cccc(Br)c2)cc1 |  |  |  | 46.1 | 42.4 | 62.2 | 60.4 | 54
30 |  |  |  |  |  | NC(=O)c1ccccc1OCc1ccc(NC(=O)Nc2cccc(F)c2)cc1 |  |  |  | 36.2 | 28.6 | 43 | 33.7 | 36.9
31 |  |  |  |  |  | NC(=O)c1ccccc1NCc1cccc(NC(=O)Nc2ccccc2)c1 |  |  |  | 51.2 | 66.2 | 64.6 | 49.8 | 36.9
32 |  |  |  |  |  | COc1cccc(NC(=O)Nc2ccc(COc3ccccc3C(N)=O)cc2)c1 |  |  |  | 53.4 | 33.1 | 56.7 | 21 | 33.1
33 |  |  |  |  |  | NC(=O)c1ccccc1NCc1ccccc1NC(=O)Nc1cccc(Br)c1 |  |  |  | 19.2 | 36.1 | 29.1 | 15.5 | 38.2
34 | 25.4 | 15.6 | 34 | 16.1 | 11.3 | NC(=O)c1ccccc1NCc1cccc(NC(=O)Nc2cccc(Cl)c2)c1 |  |  |  | 70.9 | 85.3 | 84 | 44.4 | 75.7
35 |  |  |  |  |  | NC(=O)c1ccccc1NCc1cccc(NC(=O)Nc2cccc(F)c2)c1 |  |  |  | 58.9 | < 1 | 45.6 | 28.9 | 17.9
